2 compounds from patent publication US20240316061A1, “BET INHIBITORS FOR TREATING PAB1 DEFICIENT CANCER” (INSTITUT CURIE, priority 2021, published 2024) can be followed below.

What all share (type): cell-based
Assay [1] deals with isogenic HAP1 cells (Wild-type or BAP1 knockout). Kind of assay: Proliferation of isogenic HAP1 cells exposed to BI894999, CellTiter-Glo. Particulars: increasing concentration for 7 days; FIG. 3. The method, then:
Proliferation of isogenic HAP1 cells (Wild-type or BAP1 knockout) exposed to increasing concentration of the BET inhibitor BI894999 for 7 days. Proliferation was measured using the CellTiter-Glo Luminescent Cell Viability assay.
Background: Cellular ATP, detected with luciferase, serves as a proxy for viable cell number.

For assay [2], the system named is uveal melanoma derived cells wild type for BAP1 (MP41 and MM66) or BAP1 inactivated (MP46 and MP38). Kind of assay: Proliferation of uveal melanoma derived cells exposed to OTX015, MTT assay. Particulars: increasing concentration for 12 days; MP46, MP38 vs MP41, MM66; FIG. 2. Here is the method:
Proliferation of uveal melanoma derived cells either wild type for BAP1 (MP41 and MM66) or for which BAP1 is inactivated (MP46 and MP38). Cells were exposed to increasing concentration of OTX015 for 12 days, Proliferation was measured using the MTT assay.

Assay [3] concerns human BAP1 cells either wild type or BAP1 knockout. The assay can be described thus: Proliferation of BAP1 wild type or BAP1 knockout cells exposed to OTX015, Cell Titer Glow. To be noted: increasing dose for 12 days, compound renewed after 6 days; FIG. 1. The method, then:
Proliferation of human BAP1 cells either wild type or BAP1 knockout (generated by genome editing) exposed to increasing dose of OTX015 for 12 days Cells were grown in IMDM and compound was renewed after 6 days. Cell viability was measured using Cell Titer Glow.

With `CNc1nc(-c2nc3ccc(N4CCN(C)CC4)cc3n2Cc2ccccc2)cn2c(C)nnc12` [BI894999], the “Dose response (proliferation) in BAP1 knockout HAP1 cells compared to HAP1 cells expressing BAP1” value in assay [1] is reported as “enhanced dose response”.

Turning to `Cc1sc2c(c1C)C(c1ccc(Cl)cc1)=N[C@@H](CC(=O)Nc1ccc(O)cc1)c1nnc(C)n1-2` [OTX015], the “Dose response (proliferation) in BAP1 mutated UM derived cells compared to UM cells expressing BAP1” value in assay [2] was “enhanced dose response”. Also, in assay [3], the “Dose response (proliferation) of BAP1 KO cells compared to BAP1 WT cells” value is given as “highest dose response”.
